Activity calls are given as the source filed them. The rule behind the calls is not given here.
Experiments:
HEL [1] = assay: Cytotoxicity against HEL cells assessed as inhibition of cell growth incubated in presence of ruxolitinib; assay type: functional, cell-based; conditions: Homo sapiens
HEL [2] = assay: Synergistic cytotoxicity against HEL cells assessed as combination index for 95% activity in presence of decernotinib; assay type: functional, Homo sapiens
HEL [3] = assay: Cytotoxicity against HEL cells assessed as inhibition of cell growth at 0.008 uM relative to control; assay type: functional; conditions: Homo sapiens
HEL [4] = assay: Cytotoxicity against HEL cells assessed as inhibition of cell growth at 1 uM relative to control; assay type: functional; conditions: Homo sapiens
HEL [5] = assay: Synergistic cytotoxicity against HEL cells assessed as combination index for 95% activity in presence of ruxolitinib; assay type: functional, Homo sapiens
HEL [6] = assay: Synergistic cytotoxicity against HEL cells assessed as combination index for 25% activity in presence of 3-cyclopropyl-1-(3-{5-[(morpholin-4-yl)methyl]-1H-1,3-benzodiazol-2-yl}-1H-pyrazol-4-yl)urea; assay type: functional, Homo sapiens
HEL [7] = assay: Cytotoxicity against HEL cells assessed as inhibition of cell growth incubated in presence of tofacitinib; assay type: functional, cell-based; conditions: Homo sapiens
HEL [8] = assay: Synergistic cytotoxicity against HEL cells assessed as combination index for 75% activity in presence of ruxolitinib; assay type: functional, Homo sapiens
HEL [9] = assay: Synergistic cytotoxicity against HEL cells assessed as combination index for 95% activity in presence of tofacitinib; assay type: functional, Homo sapiens
HEL [10] = assay: Synergistic cytotoxicity against HEL cells assessed as combination index for 95% activity in presence of 3-cyclopropyl-1-(3-{5-[(morpholin-4-yl)methyl]-1H-1,3-benzodiazol-2-yl}-1H-pyrazol-4-yl)urea; assay type: functional, Homo sapiens
HEL [11] = assay: Antitumor activity against HEL cells xenografted in Balb/c nude mouse assessed as tumor growth inhibition at 32.5 mg/kg, ip administered once daily for 14 consecutive days in presence of 3-cyclopropyl-1-(3-{5-[(morpholin-4-yl)methyl]-1H-1,3-benzodiazol-2-yl}-1H-pyrazol-4-yl)urea relative to control; assay type: functional, Homo sapiens; conditions: 336 h, time 14 day, read-out: TGI
[12] = Cytotoxicity against HUVEC cells assessed as inhibition of cell growth; assay type: toxicity, cell-based; conditions: human
[13] = Cytotoxicity against HUVEC cells assessed as inhibition of cell growth incubated in presence of 3-cyclopropyl-1-(3-{5-[(morpholin-4-yl)methyl]-1H-1,3-benzodiazol-2-yl}-1H-pyrazol-4-yl)urea; assay type: toxicity, cell-based; conditions: human
HEL [14] = assay: Synergistic cytotoxicity against HEL cells assessed as combination index for 50% activity in presence of 3-cyclopropyl-1-(3-{5-[(morpholin-4-yl)methyl]-1H-1,3-benzodiazol-2-yl}-1H-pyrazol-4-yl)urea; assay type: functional, Homo sapiens
HEL [15] = assay: Antitumor activity against HEL cells xenografted in Balb/c nude mouse assessed as tumor growth inhibition at 32.5 mg/kg, ip administered once daily for 14 consecutive days relative to control; assay type: functional, Homo sapiens; conditions: 336 h, time 14 day, read-out: TGI
HEL [16] = assay: Cytotoxicity against HEL cells assessed as inhibition of cell growth at 0.2 uM relative to control; assay type: functional; conditions: Homo sapiens
HEL [17] = assay: Synergistic cytotoxicity against HEL cells assessed as combination index for 50% activity in presence of decernotinib; assay type: functional, Homo sapiens
HEL [18] = assay: Synergistic cytotoxicity against HEL cells assessed as combination index for 75% activity in presence of 3-cyclopropyl-1-(3-{5-[(morpholin-4-yl)methyl]-1H-1,3-benzodiazol-2-yl}-1H-pyrazol-4-yl)urea; assay type: functional, Homo sapiens
HEL [19] = assay: Synergistic cytotoxicity against HEL cells assessed as combination index for 25% activity in presence of ruxolitinib; assay type: functional, Homo sapiens
HEL [20] = assay: Cytotoxicity against HEL cells assessed as inhibition of cell growth at 0.04 uM relative to control; assay type: functional; conditions: Homo sapiens
HEL [21] = assay: Cytotoxicity against HEL cells assessed as inhibition of cell growth incubated in presence of 3-cyclopropyl-1-(3-{5-[(morpholin-4-yl)methyl]-1H-1,3-benzodiazol-2-yl}-1H-pyrazol-4-yl)urea; assay type: functional, cell-based; conditions: Homo sapiens
HEL [22] = assay: Cytotoxicity against HEL cells assessed as inhibition of cell growth incubated under dark condition in presence of 3-cyclopropyl-1-(3-{5-[(morpholin-4-yl)methyl]-1H-1,3-benzodiazol-2-yl}-1H-pyrazol-4-yl)urea; assay type: functional, cell-based; conditions: Homo sapiens
HEL [23] = assay: Synergistic cytotoxicity against HEL cells assessed as combination index for 50% activity in presence of tofacitinib; assay type: functional, Homo sapiens
HEL [24] = assay: Cytotoxicity against HEL cells assessed as inhibition of cell growth incubated under hypoxic condition in presence of 3-cyclopropyl-1-(3-{5-[(morpholin-4-yl)methyl]-1H-1,3-benzodiazol-2-yl}-1H-pyrazol-4-yl)urea; assay type: functional, cell-based; conditions: Homo sapiens
HEL [25] = assay: Synergistic cytotoxicity against HEL cells assessed as combination index for 50% activity in presence of ruxolitinib; assay type: functional, Homo sapiens
HEL [26] = assay: Synergistic cytotoxicity against HEL cells assessed as combination index for 75% activity in presence of decernotinib; assay type: functional, Homo sapiens
HEL [27] = assay: Synergistic cytotoxicity against HEL cells assessed as combination index for 25% activity in presence of decernotinib; assay type: functional, Homo sapiens
HEL [28] = assay: Synergistic cytotoxicity against HEL cells assessed as combination index for 25% activity in presence of tofacitinib; assay type: functional, Homo sapiens
HEL [29] = assay: Synergistic cytotoxicity against HEL cells assessed as combination index for 75% activity in presence of tofacitinib; assay type: functional, Homo sapiens
HEL [30] = assay: Cytotoxicity against HEL cells assessed as inhibition of cell growth at 50 uM relative to control; assay type: functional; conditions: Homo sapiens
HEL [31] = assay: Cytotoxicity against HEL cells assessed as inhibition of cell growth at 0.0016 uM relative to control; assay type: functional; conditions: Homo sapiens
HEL [32] = assay: Cytotoxicity against HEL cells assessed as inhibition of cell growth irradiated with 450 nm light and incubated in presence of 3-cyclopropyl-1-(3-{5-[(morpholin-4-yl)methyl]-1H-1,3-benzodiazol-2-yl}-1H-pyrazol-4-yl)urea; assay type: functional, cell-based; conditions: Homo sapiens, light or radiation study
HEL [33] = assay: Antitumor activity against HEL cells xenografted in Balb/c nude mouse assessed as induction of apoptosis in tumor at 32.5 mg/kg, ip administered once daily for 14 consecutive days in presence of 3-cyclopropyl-1-(3-{5-[(morpholin-4-yl)methyl]-1H-1,3-benzodiazol-2-yl}-1H-pyrazol-4-yl)urea by TUNEL assay relative to control; assay type: functional, organism-based; conditions: Homo sapiens, time 14.0 day
BaF3 = assay: Cytotoxicity against mouse BaF3 cells harboring EPOR JAK2 V617F mutant; assay type: functional, cell-based
HEL [34] = assay: Cytotoxicity against HEL cells assessed as inhibition of cell growth incubated in presence of decernotinib; assay type: functional, cell-based; conditions: Homo sapiens
HEL [35] = assay: Cytotoxicity against HEL cells assessed as inhibition of cell growth; assay type: functional, cell-based; conditions: Homo sapiens
HEL [36] = assay: Cytotoxicity against HEL cells assessed as inhibition of cell growth at 5 uM relative to control; assay type: functional; conditions: Homo sapiens
HEL [37] = assay: Cytotoxicity against HEL cells assessed as inhibition of cell growth at 25 uM relative to control; assay type: functional; conditions: Homo sapiens
HEL [38] = assay: Cytotoxicity against HEL cells assessed as inhibition of cell growth at 100 uM relative to control; assay type: functional; conditions: Homo sapiens

SMILES: Cc1cnc(Nc2ccc(N3CCNCC3)cc2)nc1Nc1cccc(S(=O)(=O)NC(C)(C)C)c1
- IC50 (HEL [1]): 2450 nM
- CI95 (HEL [2]): 1.628
- inhibition at 0.008 µM (HEL [3]): -2.98%
- inhibition at 1 µM (HEL [4]): 40.3%
- CI95 (HEL [5]): 2.769
- CI25 (HEL [6]): 0.683
- IC50 (HEL [7]): 1530 nM
- CI75 (HEL [8]): 2.613
- CI95 (HEL [9]): 0.948
- CI95 (HEL [10]): 1.366
- inhibition in vivo at 32.5 mg/kg (HEL [11]): 91.2%
- IC50 [12]: 960 nM
- IC50 [13]: 1760 nM
- CI50 (HEL [14]): 0.809
- inhibition in vivo at 32.5 mg/kg (HEL [15]): 62.3%
- inhibition at 0.2 µM (HEL [16]): 16.5%
- CI50 (HEL [17]): 2.226
- CI75 (HEL [18]): 0.972
- CI25 (HEL [19]): 2.447
- inhibition at 0.04 µM (HEL [20]): 14.2%
- IC50 (HEL [21]): 550 nM
- IC50 (HEL [22]): 1410 nM
- CI50 (HEL [23]): 1.636
- IC50 (HEL [24]): 1340 nM
- CI50 (HEL [25]): 2.528
- CI75 (HEL [26]): 1.947
- CI25 (HEL [27]): 2.597
- CI25 (HEL [28]): 2.161
- CI75 (HEL [29]): 1.243
- inhibition at 50 µM (HEL [30]): 94.5%
- inhibition at 0.0016 µM (HEL [31]): 3.19%
- IC50 (HEL [32]): 2180 nM
- Activity (HEL [33]): Active
- IC50 (BaF3): 276 nM
- IC50 (HEL [34]): 3070 nM
- IC50 (HEL [35]): 1160 nM
- inhibition at 5 µM (HEL [36]): 70.9%
- inhibition at 25 µM (HEL [37]): 95%
- inhibition at 100 µM (HEL [38]): 95.6%

— ChEMBL document CHEMBL5385890, “A JAK tyrosine kinase and pseudokinase Co-inhibition strategy combines enhanced potency and on-demand activation” (Eur J Med Chem, 2023)
